Source: patent US20090312310A1 (priority 2006, published 2009)

Legend:
[1] = system: human lung cancer-derived cell line NCI-H460 having wild-type p53; experiment: Cell growth inhibition assay (MTT), NCI-H460; assay type: cell-based; details: 72 hours
Method: (§1) An anti-cell test was conducted using two cells (human lung cancer-derived cell line NCI-H460 having wild-type p53 and human colon cancer-derived cell line DLD-1 having mutant p53).
(§2) Cells of the respective cell lines were suspended in a medium (RPMI1640 medium containing 10% fetal bovine serum) and these suspensions were inoculated in amounts of 500 cells/150 μL/well and 1000 cells/150 μL/well, respectively, to a 96-well multiwell plate. A test compound was dissolved in DMSO and this solution was diluted with medium to prepare a sample solution (DMSO concentration: 1% or lower). On the next day of inoculation, medium containing DMSO nonsupplemented with the test compound (hereinafter, referred to as a DMSO dilution, DMSO concentration: 1% or lower) or the sample solution was added in an amount of 50 μL/well. MTT assay was conducted immediately after addition of the sample solution or the DMSO dilution to the cells and after culture of the cells (after addition of the sample solution or the DMSO dilution) at 37° C. for 72 hours in a 5% CO2 atmosphere. The MTT assay was conducted as shown below.
(§3) A 5 mg/mL MTT (3-(4,5-dimethylthiazol-2-yl)-2,5-diphenyltetrazolium bromide, Sigma-Aldrich Co., M-2128) solution was prepared using phosphate buffer solutions (Dulbecco's Phosphate-buffered Salines). This MTT solution was added in an amount of 20 μL/well. Then, the plate was cultured at 37° C. for 4 hours in a 5% CO2 atmosphere. The plate was centrifuged at 1200 rpm for 5 minutes and then the culture supernatant was removed by aspiration using a dispenser. DMSO was added in an amount of 150 μL/well to dissolve generated formazan. […] The absorbance of each well was measured under conditions of OD 540 nm and reference 660 nm using a plate reader (SpectraMax PLUS384, Molecular Devices, CA, USA).
(§4) The OD value measured immediately after addition of the sample solution was defined as S. The OD value measured 72 hours after addition of the sample solution was defined as T. The OD value measured 72 hours after addition of the DMSO dilution was defined as C. […]

Mdm2/p53 binding = target: T1, Mdm2/p53 binding (Homo sapiens, UniProt Q00987, L33E); experiment: Mdm2/p53 binding assay (HTRF, His-p53 / GST-Mdm2); details: His-p53 (aa 1-132) and GST-Mdm2 (aa 25-108, L33E), 6.25 nM each; 25° C., 1 hour
T1 construct: having Mdm2 amino acids at positions 25 to 108
T1 sequence (Q00987 25-108 L33E, species assumed): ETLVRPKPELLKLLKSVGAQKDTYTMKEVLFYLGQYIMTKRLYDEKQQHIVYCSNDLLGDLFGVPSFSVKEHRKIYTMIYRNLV
Method: Next, a test compound was diluted with protein buffer solution containing 10% DMSO, and this test compound dilution was added in an amount of 4 μL/well to the plate.
These dilutions were added in an amount of 8 μL/well (total reaction solution volume: 20 μl/well). Then, the plate was left at 25° C. for 1 hour.
C (correction factor)=(A−BI)/D
The R value calculated from the well supplemented with His-p53, GST-Mdm2, the test compound, and each antibody was defined as R (sample). The R value calculated from the well supplemented with His-p53, GST-Mdm2, and each antibody but without the test compound was defined as R (control). The R value calculated from the well supplemented with GST-Mdm2, the test compound, and each antibody but without His-p53 was defined as R (background). T/C was calculated from the formula shown below. An IC50 value for Mdm2/p53 binding was calculated by sigmoid fitting using Prism (GraphPad Software).
T/C=(R (sample)−R (background))/(R (control)−R (background))

[2] = system: human colon cancer-derived cell line DLD-1 having mutant p53; experiment: Cell growth inhibition assay (MTT), DLD-1; assay type: cell-based; details: DLD-1 (mutant p53), 72 hours
Method: as §1, §2, §3, §4

GI50 ([1]; Homo sapiens)	IC50 (Mdm2/p53 binding)	GI50 ([2]; Homo sapiens)	GI50 [1]	GI50 [2]	SMILES
1.75 µM	0.018 µM	> 50 µM	–	–	CC(=O)N(C)[C@@H](C)CN(C)C(=O)[C@@H]1CCCN1C(=O)C1=C(C(C)C)N2C(=N[C@@](C)(c3ccc(Cl)cc3)[C@H]2c2ccc(Cl)cc2)S1 [Example 73, N-{(2S)-2-[Acetyl(methyl)amino]propyl}-1-{[(5R,6S)-5,6-bis(4-chlorophenyl)-3-isopropyl-6-methyl-5,6-dihydroimidazo[2,1-b][1,3]thiazol-2-yl]carbonyl}-N-methyl-L-prolinamide]
1.38 µM	–	40.7 µM	–	–	CC(C)C1=C(C(=O)N2[C@@H](C)CC[C@H]2C(=O)N(C)C)SC2=N[C@@](C)(c3ccc(Cl)cc3)[C@@H](c3ccc(Cl)cc3)N21 [Example 112, (5S)-1-{[(5R,6S)-5,6-Bis(4-chlorophenyl)-3-isopropyl-6-methyl-5,6-dihydroimidazo[2,1-b][1,3]thiazol-2-yl]carbonyl}-N,N,5-trimethyl-L-prolinamide]
–	0.01 µM	–	2.81 µM	> 50 µM	CC(C)C1=C(C(=O)N2CCC[C@H]2C(=O)N2CCOCC2)SC2=N[C@@](C)(c3ccc(Cl)nc3)[C@@H](c3ccc(Cl)cc3)N21 (single isomer, unassigned; isomer b) [Example 97 (Isomer B)]
